Reference: US20240382557A1, “INHIBITION OF TUMOR NECROSIS FACTOR, PRO-INFLAMMATORY CYTOKINES AND OTHER INFLAMMATORY RESPONSE MEDIATORS” (Allegro Pharmaceuticals, LLC, priority 2021, published 2024)
Where a SMILES comes first, the peptide text is derived from it. [ ]: non-standard residue; d: D form. Cya = N[C@@H](CS(=O)(=O)O)C(=O)O

Test system: Primary human immune cells (PBMC)
Test: RNA-seq gene expression in primary human immune cells after risuteganib
Assay type: cell-based
Settings: 100 μM, 8 hours
Method: Purpose: In this study, RNA-seq was used to unbiasedly identify the genes regulated by risuteganib exposure in primary human immune cells. Analysis of the specific subset of genes regulated by risuteganib enables identification of biological processes and pathways modulated by the oligopeptide Methods: Primary human immune cells (PBMC) were obtained from a single human donor. The cells were separated into two groups: vehicle or 100 μM risuteganib treatment for 8 hours. After exposure, cells were collected and their total RNA isolated for RNA-seq. The generated reads were then aligned to human reference genome/transcriptome and gene expression quantified for differential expression analysis and fold change calculation. The list of regulated genes was then used to identify biological processes and pathways that are regulated after Risuteganib exposure compared to vehicle control.

## C[C@@H](O)[C@H](NC(=O)[C@H](CS(=O)(=O)O)NC(=O)CNC(=O)[C@H](CCCNC(=N)N)NC(=O)CN)C(=O)N1CCC[C@H]1C(=O)O [Risuteganib, Glycyl-L-arginylglycyl-3-sulfo-L-alanyl-L-threonyl-L-proline] (H-GRG[Cya]TP-OH)
  ADAM8 Mean Expression Rate (Normalized as Fraction Control): 0.9708
  ADGRB1 Mean Expression Rate (Normalized as Fraction Control): 0.8444
  ADGRE2 Mean Expression Rate (Normalized as Fraction Control): 0.923
  ADGRG3 Mean Expression Rate (Normalized as Fraction Control): 0.8381
  AGER Mean Expression Rate (Normalized as Fraction Control): 0.9136
  AKIRIN2 Mean Expression Rate (Normalized as Fraction Control): 0.9697
  ALDH3B1 Mean Expression Rate (Normalized as Fraction Control): 0.8912
  ANPEP Mean Expression Rate (Normalized as Fraction Control): 0.9082
  ARRB2 Mean Expression Rate (Normalized as Fraction Control): 0.9014
  ARSA Mean Expression Rate (Normalized as Fraction Control): 0.9239
  ATP6V0A1 Mean Expression Rate (Normalized as Fraction Control): 0.9432
  BAG6 Mean Expression Rate (Normalized as Fraction Control): 0.9522
  BCL3 Mean Expression Rate (Normalized as Fraction Control): 0.8918
  BRI3 Mean Expression Rate (Normalized as Fraction Control): 0.9397
  CCL2 Mean Expression Rate (Normalized as Fraction Control): 0.9143
  CCL3L1 Mean Expression Rate (Normalized as Fraction Control): 0.8739
  CCL4L2 Mean Expression Rate (Normalized as Fraction Control): 0.9389
  CCL4 Mean Expression Rate (Normalized as Fraction Control): 0.9605
  CCL22 Mean Expression Rate (Normalized as Fraction Control): 0.9197
  CD14 Mean Expression Rate (Normalized as Fraction Control): 0.8899
  CD63 Mean Expression Rate (Normalized as Fraction Control): 0.9487
  CD300A Mean Expression Rate (Normalized as Fraction Control): 0.9137
  CDC37 Mean Expression Rate (Normalized as Fraction Control): 0.935
  CEBPB Mean Expression Rate (Normalized as Fraction Control): 0.8752
  CKAP4 Mean Expression Rate (Normalized as Fraction Control): 0.9133
  CLCF1 Mean Expression Rate (Normalized as Fraction Control): 0.8975
  CSF1 Mean Expression Rate (Normalized as Fraction Control): 0.8841
  CSF3 Mean Expression Rate (Normalized as Fraction Control): 0.8615
  CSTB Mean Expression Rate (Normalized as Fraction Control): 0.9649
  CTSA Mean Expression Rate (Normalized as Fraction Control): 0.941
  CTSD Mean Expression Rate (Normalized as Fraction Control): 0.9173
  CXCL1 Mean Expression Rate (Normalized as Fraction Control): 0.9216
  CXCL2 Mean Expression Rate (Normalized as Fraction Control): 0.8524
  CXCL16 Mean Expression Rate (Normalized as Fraction Control): 0.9326
  CYB5R3 Mean Expression Rate (Normalized as Fraction Control): 0.9564
  CYBA Mean Expression Rate (Normalized as Fraction Control): 0.8869
  CYP27B1 Mean Expression Rate (Normalized as Fraction Control): 0.8623
  DGAT1 Mean Expression Rate (Normalized as Fraction Control): 0.9308
  DNAJC5 Mean Expression Rate (Normalized as Fraction Control): 0.969
  DOK3 Mean Expression Rate (Normalized as Fraction Control): 0.8929
  DYSF Mean Expression Rate (Normalized as Fraction Control): 0.8587
  ERCC1 Mean Expression Rate (Normalized as Fraction Control): 0.8784
  FABP5 Mean Expression Rate (Normalized as Fraction Control): 0.8713
  FCER1G Mean Expression Rate (Normalized as Fraction Control): 0.9289
  FCER2 Mean Expression Rate (Normalized as Fraction Control): 0.7686
  FCGRT Mean Expression Rate (Normalized as Fraction Control): 0.8558
  FGR Mean Expression Rate (Normalized as Fraction Control): 0.9222
  FOS Mean Expression Rate (Normalized as Fraction Control): 0.822
  GAA Mean Expression Rate (Normalized as Fraction Control): 0.9121
  GALNS Mean Expression Rate (Normalized as Fraction Control): 0.9356
  GLA Mean Expression Rate (Normalized as Fraction Control): 0.9639
  GPR84 Mean Expression Rate (Normalized as Fraction Control): 0.9231
  GPX1 Mean Expression Rate (Normalized as Fraction Control): 0.9254
  GRN Mean Expression Rate (Normalized as Fraction Control): 0.9221
  HEXIM1 Mean Expression Rate (Normalized as Fraction Control): 0.9653
  HIST2H2BE Mean Expression Rate (Normalized as Fraction Control): 0.8527
  HLA-DPB1 Mean Expression Rate (Normalized as Fraction Control): 0.9295
  HLA-DQB1 Mean Expression Rate (Normalized as Fraction Control): 0.9554
  HLX Mean Expression Rate (Normalized as Fraction Control): 0.9084
  HRAS Mean Expression Rate (Normalized as Fraction Control): 0.9238
  IFI30 Mean Expression Rate (Normalized as Fraction Control): 0.8318
  IGHD Mean Expression Rate (Normalized as Fraction Control): 0.8731
  IGLC2 Mean Expression Rate (Normalized as Fraction Control): 0.8467
  IGLV2-23 Mean Expression Rate (Normalized as Fraction Control): 0.4503
  IL1RN Mean Expression Rate (Normalized as Fraction Control): 0.8469
  IL4R Mean Expression Rate (Normalized as Fraction Control): 0.9748
  IL6 Mean Expression Rate (Normalized as Fraction Control): 0.9281
  IRF5 Mean Expression Rate (Normalized as Fraction Control): 0.9293
  ITGAL Mean Expression Rate (Normalized as Fraction Control): 0.9842
  ITGAM Mean Expression Rate (Normalized as Fraction Control): 0.9473
  ITGAX Mean Expression Rate (Normalized as Fraction Control): 0.8865
  KCNAB2 Mean Expression Rate (Normalized as Fraction Control): 0.9588
  KCNN4 Mean Expression Rate (Normalized as Fraction Control): 0.9127
  LFNG Mean Expression Rate (Normalized as Fraction Control): 0.9734
  LIF Mean Expression Rate (Normalized as Fraction Control): 0.7939
  LILRB3 Mean Expression Rate (Normalized as Fraction Control): 0.9396
  LILRB4 Mean Expression Rate (Normalized as Fraction Control): 0.897
  LIMK1 Mean Expression Rate (Normalized as Fraction Control): 0.9285
  LRP1 Mean Expression Rate (Normalized as Fraction Control): 0.9405
  LTB4R Mean Expression Rate (Normalized as Fraction Control): 0.834
  LTBR Mean Expression Rate (Normalized as Fraction Control): 0.9644
  MAN2B1 Mean Expression Rate (Normalized as Fraction Control): 0.9706
  MAP2K7 Mean Expression Rate (Normalized as Fraction Control): 0.9421
  MCEMP1 Mean Expression Rate (Normalized as Fraction Control): 0.86
  MCOLN1 Mean Expression Rate (Normalized as Fraction Control): 0.9403
  MMP9 Mean Expression Rate (Normalized as Fraction Control): 0.9125
  MMP25 Mean Expression Rate (Normalized as Fraction Control): 0.8959
  MT2A Mean Expression Rate (Normalized as Fraction Control): 0.9216
  MUCL1 Mean Expression Rate (Normalized as Fraction Control): 0.6866
  MYO1G Mean Expression Rate (Normalized as Fraction Control): 0.9214
  NBEAL2 Mean Expression Rate (Normalized as Fraction Control): 0.9432
  NCF4 Mean Expression Rate (Normalized as Fraction Control): 0.9433
  NECTIN2 Mean Expression Rate (Normalized as Fraction Control): 0.9479
  NFAM1 Mean Expression Rate (Normalized as Fraction Control): 0.8948
  NFKB2 Mean Expression Rate (Normalized as Fraction Control): 0.9675
  NFKBID Mean Expression Rate (Normalized as Fraction Control): 0.9203
  NPLOC4 Mean Expression Rate (Normalized as Fraction Control): 0.9748
  NRROS Mean Expression Rate (Normalized as Fraction Control): 0.9202
  ORAI1 Mean Expression Rate (Normalized as Fraction Control): 0.9714
  OSCAR Mean Expression Rate (Normalized as Fraction Control): 0.772
  OSM Mean Expression Rate (Normalized as Fraction Control): 0.8306
  OTUB1 Mean Expression Rate (Normalized as Fraction Control): 0.9445
  PDXK Mean Expression Rate (Normalized as Fraction Control): 0.973
  PFKL Mean Expression Rate (Normalized as Fraction Control): 0.9804
  PI3 Mean Expression Rate (Normalized as Fraction Control): 0.9158
  PILRA Mean Expression Rate (Normalized as Fraction Control): 0.9457
  PLAUR Mean Expression Rate (Normalized as Fraction Control): 0.9104
  PLD2 Mean Expression Rate (Normalized as Fraction Control): 0.9215
  PRAM1 Mean Expression Rate (Normalized as Fraction Control): 0.8661
  PRKCD Mean Expression Rate (Normalized as Fraction Control): 0.9631
  PSTPIP1 Mean Expression Rate (Normalized as Fraction Control): 0.9409
  QSOX1 Mean Expression Rate (Normalized as Fraction Control): 0.9355
  RAB5C Mean Expression Rate (Normalized as Fraction Control): 0.9246
  RAC2 Mean Expression Rate (Normalized as Fraction Control): 0.9763
  RAPGEF1 Mean Expression Rate (Normalized as Fraction Control): 0.9459
  RARA Mean Expression Rate (Normalized as Fraction Control): 0.8926
  RELB Mean Expression Rate (Normalized as Fraction Control): 0.9647
  RHOG Mean Expression Rate (Normalized as Fraction Control): 0.9592
  RNF19B Mean Expression Rate (Normalized as Fraction Control): 0.9469
  S100A11 Mean Expression Rate (Normalized as Fraction Control): 0.9492
  SH2B2 Mean Expression Rate (Normalized as Fraction Control): 0.879
  SIRPA Mean Expression Rate (Normalized as Fraction Control): 0.9657
  SLC11A1 Mean Expression Rate (Normalized as Fraction Control): 0.8842
  SLC26A6 Mean Expression Rate (Normalized as Fraction Control): 0.9452
  SOCS1 Mean Expression Rate (Normalized as Fraction Control): 0.9289
  SP2 Mean Expression Rate (Normalized as Fraction Control): 0.9613
  SRC Mean Expression Rate (Normalized as Fraction Control): 0.9483
  STK10 Mean Expression Rate (Normalized as Fraction Control): 0.9606
  STX4 Mean Expression Rate (Normalized as Fraction Control): 0.949
  STXBP2 Mean Expression Rate (Normalized as Fraction Control): 0.8885
  SUPT6H Mean Expression Rate (Normalized as Fraction Control): 0.9568
  TCIRG1 Mean Expression Rate (Normalized as Fraction Control): 0.892
  TFE3 Mean Expression Rate (Normalized as Fraction Control): 0.9731
  TICAM1 Mean Expression Rate (Normalized as Fraction Control): 0.9382
  TNF Mean Expression Rate (Normalized as Fraction Control): 0.9281
  TNFRSF1B Mean Expression Rate (Normalized as Fraction Control): 0.9604
  TNFRSF4 Mean Expression Rate (Normalized as Fraction Control): 0.9427
  TNFRSF13B Mean Expression Rate (Normalized as Fraction Control): 0.8508
  TNFRSF14 Mean Expression Rate (Normalized as Fraction Control): 0.9239
  TNFSF9 Mean Expression Rate (Normalized as Fraction Control): 0.8416
  TOM1 Mean Expression Rate (Normalized as Fraction Control): 0.9211
  TRAF3IP2 Mean Expression Rate (Normalized as Fraction Control): 0.9472
  TREM1 Mean Expression Rate (Normalized as Fraction Control): 0.9084
  TRPM2 Mean Expression Rate (Normalized as Fraction Control): 0.9391
  TYK2 Mean Expression Rate (Normalized as Fraction Control): 0.9711
  TYROBP Mean Expression Rate (Normalized as Fraction Control): 0.9329
  UNC13D Mean Expression Rate (Normalized as Fraction Control): 0.9577
  ZC3H12A Mean Expression Rate (Normalized as Fraction Control): 0.9757
  ZP3 Mean Expression Rate (Normalized as Fraction Control): 0.8491
  ZYX Mean Expression Rate (Normalized as Fraction Control): 0.9139
Adjusted p-value=6.22E-3
  genes associated with TNF-a pro-inflammatory pathway (pathway analysis): down-regulated
Gene printed as NA
  NA Mean Expression Rate (Normalized as Fraction Control): 0.9077
